Experimental data reported in the supplement of paper PMC10307832.

Tests used:
Assay in all cases: relative viability (nuclei count vs DMSO), 5 days (fraction); higher = more cells survive
RU-SKI 43 + Foretinib = compound: CC[C@@H](C)CNCC(=O)N1CCC2=C([C@@H]1COC3=CC=CC(=C3)C)C=CS2 [RU-SKI 43] + COc1cc2c(Oc3ccc(NC(=O)C4(C(=O)Nc5ccc(F)cc5)CC4)cc3F)ccnc2cc1OCCCN1CCOCC1 [Foretinib] (partner 0.25 µM)
In short: (§1)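 The day after seeding in 1536-well plates, lung cancer cell lines were treated by pin tool with a single drug, or with a fixed anchor-drug dose together with five library-drug doses (not always all listed) in √10 steps. After 5 days, a combined fix-and-stain solution (final 0.05% Triton X-100, 1% formaldehyde, 1 ug/ml Hoechst) was added. Nuclei counted on 4× images gave relative viability as treated counts over vehicle counts, reported as the median of duplicate plates.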

MK-8033 + Pictilisib = compound: Cn1cc(-c2cnc3ccc4ccc(CS(=O)(=O)NCc5ccccn5)cc4c(=O)c3c2)cn1 [MK-8033] + CS(=O)(=O)N1CCN(Cc2cc3nc(-c4cccc5[nH]ncc45)nc(N4CCOCC4)c3s2)CC1 [Pictilisib] (partner 1 µM)
In short: as §1

RU-SKI 43 + Lapatinib = compound: CC[C@@H](C)CNCC(=O)N1CCC2=C([C@@H]1COC3=CC=CC(=C3)C)C=CS2 [RU-SKI 43] + CS(=O)(=O)CCNCc1ccc(-c2ccc3ncnc(Nc4ccc(OCc5cccc(F)c5)c(Cl)c4)c3c2)o1 [Lapatinib] (partner 2 µM)
In short: as §1

RU-SKI 43 + Pictilisib = compound: CC[C@@H](C)CNCC(=O)N1CCC2=C([C@@H]1COC3=CC=CC(=C3)C)C=CS2 [RU-SKI 43] + CS(=O)(=O)N1CCN(Cc2cc3nc(-c4cccc5[nH]ncc45)nc(N4CCOCC4)c3s2)CC1 [Pictilisib] (partner 1 µM)
In short: as §1

Cell Line: UMC-11
- relative viability (RU-SKI 43 + Foretinib; first compound 0.1 µM): 1.07
- relative viability (RU-SKI 43 + Foretinib; first compound 0.3162 µM): 1.14
- relative viability (RU-SKI 43 + Foretinib; first compound 1 µM): 1.05
- relative viability (RU-SKI 43 + Foretinib; first compound 3.162 µM): 1.14
- relative viability (RU-SKI 43 + Foretinib; first compound 10 µM): 1.03
- relative viability (MK-8033 + Pictilisib; first compound 0.02 µM): 0.746
- relative viability (MK-8033 + Pictilisib; first compound 0.06325 µM): 0.511
- relative viability (MK-8033 + Pictilisib; first compound 0.2 µM): 0.804
- relative viability (MK-8033 + Pictilisib; first compound 0.6325 µM): 0.932
- relative viability (MK-8033 + Pictilisib; first compound 2 µM): 0.699
- relative viability (RU-SKI 43 + Lapatinib; first compound 0.1 µM): 1.05
- relative viability (RU-SKI 43 + Lapatinib; first compound 0.3162 µM): 1.01
- relative viability (RU-SKI 43 + Lapatinib; first compound 1 µM): 1.48
- relative viability (RU-SKI 43 + Lapatinib; first compound 3.162 µM): 0.918
- relative viability (RU-SKI 43 + Lapatinib; first compound 10 µM): 0.764
- relative viability (RU-SKI 43 + Pictilisib; first compound 0.1 µM): 0.958
- relative viability (RU-SKI 43 + Pictilisib; first compound 0.3162 µM): 1.11
- relative viability (RU-SKI 43 + Pictilisib; first compound 1 µM): 0.876
- relative viability (RU-SKI 43 + Pictilisib; first compound 3.162 µM): 0.789
- relative viability (RU-SKI 43 + Pictilisib; first compound 10 µM): 0.695
